{"source": "patent US20220338473A1", "about": "“USE OF BENZYL ALCOHOL AS A HERBICIDE” (INNOVI, priority 2019, published 2022)", "assay_type_in_all_cases": "in vivo", "key": {"Osteospermum": {"system": "Osteospermum", "assay": "Systemic application through contact with the above-ground parts (half of plant treated)", "settings": "potted, only one half sprayed, 2 g benzyl alcohol (100 L/Ha) in 2 g total (100 L/Ha)", "experimental": "(§1) Assays were carried out on different plants by treatment on a fraction of the above-ground parts.\n(§2) The assays were carried out on potted plants.\n(§3) The systemic action was evaluated on several types of plants by treatment on a fraction of its above-ground parts.\n(§4) The application of the product is carried out with a trigger spray bottle which makes it possible to spray 1 g of product per spraying, as microdroplets.\n(§5) The treated plants are sprinkled on only one half, with different quantities of water comprising different quantities of pure benzyl alcohol (PanReac AppliChem—ITW Reagents). The untreated (control) plants are sprinkled with the same total quantity, but of water only.\n(§6) The collapsing of the plant, the colour intensity and the diameter of the plant were measured as indicated in Example 1. The systemic effectiveness time was also measured in the following manner: • Systemic effectiveness time: 50% of the plant is initially treated with the product. The time necessary to see the first effects (systemically) appear on the part not treated (systemically) is determined."}, "Carnation": {"system": "Carnation", "assay": "Systemic application through contact with the above-ground parts (half of plant treated)", "settings": "potted, only one half sprayed, 4 g benzyl alcohol (200 L/Ha) in 4 g total (200 L/Ha)", "experimental": "as §1, §2, §3, §4, §5, §6"}, "Horned pansy [1]": {"system": "Horned pansy", "assay": "Systemic application through contact with the above-ground parts (half of plant treated)", "settings": "potted, only one half sprayed, 0.1 g benzyl alcohol (5 L/Ha) in 12 g total (600 L/Ha)", "experimental": "as §1, §2, §3, §4, §5, §6"}, "Hypoestes": {"system": "Hypoestes", "assay": "Systemic application through contact with the above-ground parts (half of plant treated)", "settings": "potted, only one half sprayed, 1 g benzyl alcohol (50 L/Ha) in 8 g total (400 L/Ha)", "experimental": "as §1, §2, §3, §4, §5, §6"}, "White petunia": {"system": "White petunia", "assay": "Systemic application through contact with the above-ground parts (half of plant treated)", "settings": "potted, only one half sprayed, 10 g benzyl alcohol (500 L/Ha) in 16 g total (800 L/Ha)", "experimental": "as §1, §2, §3, §4, §5, §6"}, "Grass": {"system": "Grass", "assay": "Systemic application through contact with the above-ground parts (half of plant treated)", "settings": "potted, only one half sprayed, 16 g benzyl alcohol (800 L/Ha) in 20 g total (1000 L/Ha)", "experimental": "as §1, §2, §3, §4, §5, §6"}, "squares of grass": {"system": "squares of grass", "assay": "Outdoor assays with benzyl alcohol used alone", "experimental": "The outdoor assays were carried out on squares of grass having a surface area of 1 m^2. The application of the product is carried out with a compression sprayer which makes it possible to spray 20 to 100 g liquid over a surface area of 1 m^2 (equivalent to 200-1000 L/Ha).\nThe treated squares of grass are sprayed with a total quantity of water and pure benzyl alcohol (PanReac AppliChem—ITW Reagents) of 20 g (equivalent 200 l/Ha) including 0.5 g benzyl alcohol (equivalent to 5 L/Ha pure benzyl alcohol).\nThe control squares of grass receive a total quantity of 20 g water alone.\nThe following measurements and evaluations were carried out: • Percentage of the surface area affected: Following the assays in pots, it was noted that the change in colour correlated with the collapsing and the death of the plants. The time necessary to impact the colour of the grass as well as its surface area was evaluated. • Measurement of the collapsing of the grass: the distance between the ground and the highest part of 10 blades of grass selected at random in a square is measured. The average of these 10 blades is calculated and, after treatment, when this average distance is reduced by 30%, the collapsing time is determined.\nAssay no. 2 was carried out under the same conditions as assay no. 1, except that the treated squares of grass are sprayed with a total quantity of water and benzyl alcohol of 60 g (equivalent 600 L/Ha) including 5 g pure benzyl alcohol (equivalent to 50 L/Ha pure benzyl alcohol).\nAssay no. 3 was carried out under the same conditions as assay no. 1, except that the treated squares of grass are sprayed with a total quantity of 20 g pure benzyl alcohol (equivalent to 200 L/Ha pure benzyl alcohol).\nAssay no. 4 was carried out under the same conditions as assay no. 1, except that the treated squares of grass are sprayed with a total quantity of water and benzyl alcohol of 60 g (equivalent 600 L/Ha) including 40 g pure benzyl alcohol (equivalent to 400 L/Ha pure benzyl alcohol).\nAssay no. 5 was carried out under the same conditions as assay no. 1, except that the treated squares of grass are sprayed with a total quantity of water and benzyl alcohol of 100 g (equivalent 1000 L/Ha) including 60 g pure benzyl alcohol (equivalent to 600 L/Ha pure benzyl alcohol).\nAssay no. 6 was carried out under the same conditions as assay no. 1, except that the treated squares of grass are sprayed with a total quantity of 80 g pure benzyl alcohol (equivalent to 800 L/Ha pure benzyl alcohol)."}, "Horned pansy [2]": {"system": "Horned pansy", "assay": "Systemic action through contact with the underground parts (saucer, capillary uptake)", "settings": "potted, saucer containing 40 g pure benzyl alcohol, uptake via roots", "experimental": "as §2\nPure benzyl alcohol was used (PanReac AppliChem—ITW Reagents).\nTwo potted plants (Horned pansy) were each placed in a saucer containing respectively 40 g pure benzyl alcohol or 40 g water (control). By capillary action, the liquids contained in the saucer are absorbed by the earth and come into contact with the roots.\nThe systemic effectiveness time, the collapsing of the plant, the colour intensity and the diameter of the plant were measured as indicated in Examples 1 and 2."}}}
{"smiles": "OCc1ccccc1", "note": "[benzyl alcohol]", "values": [{"measurement": "A: systemic effectiveness time (whole plant affected)", "setting": "Osteospermum", "result": "at 96 h"}, {"measurement": "B: collapsing (score and time): time to pass from score 5 (T0) to score 1", "setting": "Osteospermum", "result": 144, "unit": "h"}, {"measurement": "C: colour intensity (score and time): time to pass from score 5 (T0) to score 1", "setting": "Osteospermum", "result": 120, "unit": "h"}, {"measurement": "D: diameter (score and time): time to pass from score 5 (T0) to score 1", "setting": "Osteospermum", "result": 144, "unit": "h"}, {"measurement": "A: systemic effectiveness time (whole plant affected)", "setting": "Carnation", "result": "at 72 h"}, {"measurement": "B: collapsing (score and time): time to pass from score 5 (T0) to score 1", "setting": "Carnation", "result": 86, "unit": "h"}, {"measurement": "C: colour intensity (score and time): time to pass from score 5 (T0) to score 1", "setting": "Carnation", "result": 96, "unit": "h"}, {"measurement": "D: diameter (score and time): time to pass from score 5 (T0) to score 1", "setting": "Carnation", "result": 120, "unit": "h"}, {"measurement": "A: systemic effectiveness time (whole plant affected)", "setting": "Horned pansy [1]", "result": "at 120 h"}, {"measurement": "B: collapsing (score and time): time to pass from score 5 (T0) to score 1", "setting": "Horned pansy [1]", "result": 168, "unit": "h"}, {"measurement": "C: colour intensity (score and time): time to pass from score 5 (T0) to score 1", "setting": "Horned pansy [1]", "result": 144, "unit": "h"}, {"measurement": "D: diameter (score and time): time to pass from score 5 (T0) to score 1", "setting": "Horned pansy [1]", "result": 168, "unit": "h"}, {"measurement": "A: systemic effectiveness time (whole plant affected)", "setting": "Hypoestes", "result": "at 96 h"}, {"measurement": "B: collapsing (score and time): time to pass from score 5 (T0) to score 1", "setting": "Hypoestes", "result": 120, "unit": "h"}, {"measurement": "C: colour intensity (score and time): time to pass from score 5 (T0) to score 1", "setting": "Hypoestes", "result": 120, "unit": "h"}, {"measurement": "D: diameter (score and time): time to pass from score 5 (T0) to score 1", "setting": "Hypoestes", "result": 144, "unit": "h"}, {"measurement": "A: systemic effectiveness time (whole plant affected)", "setting": "White petunia", "result": "at 24 h"}, {"measurement": "B: collapsing (score and time): time to pass from score 5 (T0) to score 1", "setting": "White petunia", "result": 48, "unit": "h"}, {"measurement": "C: colour intensity (score and time): time to pass from score 5 (T0) to score 1", "setting": "White petunia", "result": 48, "unit": "h"}, {"measurement": "D: diameter (score and time): time to pass from score 5 (T0) to score 1", "setting": "White petunia", "result": 48, "unit": "h"}, {"measurement": "A: systemic effectiveness time (whole plant affected)", "setting": "Grass", "result": "at 96 h"}, {"measurement": "B: collapsing (score and time): time to pass from score 5 (T0) to score 1", "setting": "Grass", "result": 144, "unit": "h"}, {"measurement": "C: colour intensity (score and time): time to pass from score 5 (T0) to score 1", "setting": "Grass", "result": 120, "unit": "h"}, {"measurement": "D: diameter (score and time): time to pass from score 5 (T0) to score 1", "setting": "Grass", "result": 168, "unit": "h"}, {"measurement": "Collapsing of the grass: time after treatment to average collapsing of 30%", "setting": "squares of grass; Assay no. 1: 1 m2 grass outdoors, 0.5 g benzyl alcohol (5 L/Ha) in 20 g total (200 l/Ha)", "result": 72, "unit": "h"}, {"measurement": "Maximum percentage of the surface area affected", "setting": "squares of grass; Assay no. 1: 1 m2 grass outdoors, 0.5 g benzyl alcohol (5 L/Ha) in 20 g total (200 l/Ha), observed 96 h after treatment", "result": 45, "unit": "%"}, {"measurement": "Collapsing of the grass: time after treatment to average collapsing of 30%", "setting": "squares of grass; Assay no. 2: 1 m2 grass outdoors, 5 g benzyl alcohol (50 L/Ha) in 60 g total (600 L/Ha)", "result": 48, "unit": "h"}, {"measurement": "Maximum percentage of the surface area affected", "setting": "squares of grass; Assay no. 2: 1 m2 grass outdoors, 5 g benzyl alcohol (50 L/Ha) in 60 g total (600 L/Ha), observed 72 h after treatment", "result": 60, "unit": "%"}, {"measurement": "Collapsing of the grass: time after treatment to average collapsing of 30%", "setting": "squares of grass; Assay no. 3: 1 m2 grass outdoors, 20 g pure benzyl alcohol (200 L/Ha)", "result": 48, "unit": "h"}, {"measurement": "Maximum percentage of the surface area affected", "setting": "squares of grass; Assay no. 3: 1 m2 grass outdoors, 20 g pure benzyl alcohol (200 L/Ha), observed 48 h after treatment", "result": 80, "unit": "%"}, {"measurement": "Collapsing of the grass: time after treatment to average collapsing of 30%", "setting": "squares of grass; Assay no. 4: 1 m2 grass outdoors, 40 g benzyl alcohol (400 L/Ha) in 60 g total (600 L/Ha)", "result": 24, "unit": "h"}, {"measurement": "Maximum percentage of the surface area affected", "setting": "squares of grass; Assay no. 4: 1 m2 grass outdoors, 40 g benzyl alcohol (400 L/Ha) in 60 g total (600 L/Ha), observed 24 h after treatment", "result": 100, "unit": "%"}, {"measurement": "Collapsing of the grass: time after treatment to average collapsing of 30%", "setting": "squares of grass; Assay no. 5: 1 m2 grass outdoors, 60 g benzyl alcohol (600 L/Ha) in 100 g total (1000 L/Ha)", "result": 6, "unit": "h"}, {"measurement": "Maximum percentage of the surface area affected", "setting": "squares of grass; Assay no. 5: 1 m2 grass outdoors, 60 g benzyl alcohol (600 L/Ha) in 100 g total (1000 L/Ha), observed 24 h after treatment", "result": 100, "unit": "%"}, {"measurement": "Collapsing of the grass: time after treatment to average collapsing of 30%", "setting": "squares of grass; Assay no. 6: 1 m2 grass outdoors, 80 g pure benzyl alcohol (800 L/Ha)", "result": 6, "unit": "h"}, {"measurement": "Maximum percentage of the surface area affected", "setting": "squares of grass; Assay no. 6: 1 m2 grass outdoors, 80 g pure benzyl alcohol (800 L/Ha), observed 6 h after treatment", "result": 100, "unit": "%"}, {"measurement": "Collapsing: time to pass from a score of 5 to a score of 1", "setting": "Horned pansy [2]", "result": 72, "unit": "h"}, {"measurement": "Colour intensity: time to pass from a score of 5 to a score of 1", "setting": "Horned pansy [2]", "result": 48, "unit": "h"}, {"measurement": "Diameter of the plant: time to pass from a score of 5 to a score of 1", "setting": "Horned pansy [2]", "result": 96, "unit": "h"}, {"measurement": "Systemic effectiveness time: the whole plant is affected", "setting": "Horned pansy [2]", "result": 48, "unit": "h"}]}
